# According to PMC5154332 (Neuropharmacology, 2017):
# Values joined by “and” are separate entries in the source; they are usually repeats but may differ in a detail not shown here. Equal values may be shown once. Read-outs that look alike come from different tables or passages of the source.
# How the values were obtained:
# [1] = humans; ref Lalka et al., 1976; cited from earlier work
# HeLa = conditions: 100 μM; ref Ghelardini et al., 2010; cited from earlier work
# MRC-5 = conditions: 100 μM; ref Ghelardini et al., 2010; cited from earlier work
# [2] = tested on: murine C2C12 skeletal muscle cells; experiment: In vitro cytotoxicity, CCK-8 cell viability; assay type: cell-based; conditions: C2C12, 6 h, from 100 μM to 1 mM
# hNav1.4 – WT = hNav1.4 – WT (Homo sapiens, UniProt P35499); conditions: cited from earlier work; for 0.1-to-10 Hz ratio: ratio of IC50 values
# hNav1.4 – WT, sequence (P35499 whole entry): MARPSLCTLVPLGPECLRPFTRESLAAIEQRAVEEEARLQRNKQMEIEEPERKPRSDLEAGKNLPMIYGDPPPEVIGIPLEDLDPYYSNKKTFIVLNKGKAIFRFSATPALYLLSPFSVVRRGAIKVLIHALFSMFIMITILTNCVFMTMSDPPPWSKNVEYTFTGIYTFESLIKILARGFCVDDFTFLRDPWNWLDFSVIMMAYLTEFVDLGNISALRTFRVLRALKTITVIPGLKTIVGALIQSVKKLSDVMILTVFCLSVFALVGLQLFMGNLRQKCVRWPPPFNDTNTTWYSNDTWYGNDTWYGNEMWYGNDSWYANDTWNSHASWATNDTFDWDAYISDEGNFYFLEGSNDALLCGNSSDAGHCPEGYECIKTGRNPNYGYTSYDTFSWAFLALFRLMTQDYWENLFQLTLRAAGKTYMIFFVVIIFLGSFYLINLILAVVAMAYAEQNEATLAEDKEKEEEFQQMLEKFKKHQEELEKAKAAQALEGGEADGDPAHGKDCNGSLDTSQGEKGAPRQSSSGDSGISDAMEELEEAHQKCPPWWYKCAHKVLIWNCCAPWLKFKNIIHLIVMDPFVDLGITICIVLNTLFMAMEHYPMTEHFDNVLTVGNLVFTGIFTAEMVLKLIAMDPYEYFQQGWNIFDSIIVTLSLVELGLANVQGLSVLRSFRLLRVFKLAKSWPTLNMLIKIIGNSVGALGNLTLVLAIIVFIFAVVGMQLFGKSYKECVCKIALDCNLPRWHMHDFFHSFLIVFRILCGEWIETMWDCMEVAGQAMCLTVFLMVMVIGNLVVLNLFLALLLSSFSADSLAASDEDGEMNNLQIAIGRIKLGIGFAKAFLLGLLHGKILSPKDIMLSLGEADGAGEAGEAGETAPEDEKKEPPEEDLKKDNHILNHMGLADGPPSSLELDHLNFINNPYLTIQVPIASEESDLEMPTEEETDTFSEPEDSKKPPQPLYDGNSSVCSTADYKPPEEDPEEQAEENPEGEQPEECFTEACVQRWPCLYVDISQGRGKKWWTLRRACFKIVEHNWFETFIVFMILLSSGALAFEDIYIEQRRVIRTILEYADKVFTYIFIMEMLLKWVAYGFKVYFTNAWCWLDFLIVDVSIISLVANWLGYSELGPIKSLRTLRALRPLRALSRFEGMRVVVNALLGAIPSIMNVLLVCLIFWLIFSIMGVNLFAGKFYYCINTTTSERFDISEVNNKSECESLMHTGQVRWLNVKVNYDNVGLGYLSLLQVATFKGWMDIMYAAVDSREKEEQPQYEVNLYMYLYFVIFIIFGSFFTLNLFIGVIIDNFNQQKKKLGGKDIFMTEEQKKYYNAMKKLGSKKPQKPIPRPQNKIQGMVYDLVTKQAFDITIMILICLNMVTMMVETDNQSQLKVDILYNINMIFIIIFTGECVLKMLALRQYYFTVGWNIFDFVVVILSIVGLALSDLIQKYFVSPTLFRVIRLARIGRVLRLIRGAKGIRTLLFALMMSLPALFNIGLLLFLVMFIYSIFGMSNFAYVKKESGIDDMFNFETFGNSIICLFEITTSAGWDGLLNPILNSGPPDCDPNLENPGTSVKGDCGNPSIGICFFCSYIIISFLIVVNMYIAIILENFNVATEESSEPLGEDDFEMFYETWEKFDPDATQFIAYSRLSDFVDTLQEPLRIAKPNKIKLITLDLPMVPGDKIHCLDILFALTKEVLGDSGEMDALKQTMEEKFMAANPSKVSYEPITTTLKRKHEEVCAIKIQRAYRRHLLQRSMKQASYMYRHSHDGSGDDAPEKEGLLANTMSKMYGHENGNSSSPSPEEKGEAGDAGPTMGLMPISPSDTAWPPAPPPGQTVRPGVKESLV
# rat model of myotonia = experiment: In vivo antimyotonic activity, time of righting reflex
# hERG potassium channel = hERG potassium channel (Homo sapiens, UniProt Q12809); experiment: Patch-clamp of hERG potassium currents in transfected tsA201 cells; assay type: cell-based
# hERG potassium channel, sequence (Q12809 whole entry): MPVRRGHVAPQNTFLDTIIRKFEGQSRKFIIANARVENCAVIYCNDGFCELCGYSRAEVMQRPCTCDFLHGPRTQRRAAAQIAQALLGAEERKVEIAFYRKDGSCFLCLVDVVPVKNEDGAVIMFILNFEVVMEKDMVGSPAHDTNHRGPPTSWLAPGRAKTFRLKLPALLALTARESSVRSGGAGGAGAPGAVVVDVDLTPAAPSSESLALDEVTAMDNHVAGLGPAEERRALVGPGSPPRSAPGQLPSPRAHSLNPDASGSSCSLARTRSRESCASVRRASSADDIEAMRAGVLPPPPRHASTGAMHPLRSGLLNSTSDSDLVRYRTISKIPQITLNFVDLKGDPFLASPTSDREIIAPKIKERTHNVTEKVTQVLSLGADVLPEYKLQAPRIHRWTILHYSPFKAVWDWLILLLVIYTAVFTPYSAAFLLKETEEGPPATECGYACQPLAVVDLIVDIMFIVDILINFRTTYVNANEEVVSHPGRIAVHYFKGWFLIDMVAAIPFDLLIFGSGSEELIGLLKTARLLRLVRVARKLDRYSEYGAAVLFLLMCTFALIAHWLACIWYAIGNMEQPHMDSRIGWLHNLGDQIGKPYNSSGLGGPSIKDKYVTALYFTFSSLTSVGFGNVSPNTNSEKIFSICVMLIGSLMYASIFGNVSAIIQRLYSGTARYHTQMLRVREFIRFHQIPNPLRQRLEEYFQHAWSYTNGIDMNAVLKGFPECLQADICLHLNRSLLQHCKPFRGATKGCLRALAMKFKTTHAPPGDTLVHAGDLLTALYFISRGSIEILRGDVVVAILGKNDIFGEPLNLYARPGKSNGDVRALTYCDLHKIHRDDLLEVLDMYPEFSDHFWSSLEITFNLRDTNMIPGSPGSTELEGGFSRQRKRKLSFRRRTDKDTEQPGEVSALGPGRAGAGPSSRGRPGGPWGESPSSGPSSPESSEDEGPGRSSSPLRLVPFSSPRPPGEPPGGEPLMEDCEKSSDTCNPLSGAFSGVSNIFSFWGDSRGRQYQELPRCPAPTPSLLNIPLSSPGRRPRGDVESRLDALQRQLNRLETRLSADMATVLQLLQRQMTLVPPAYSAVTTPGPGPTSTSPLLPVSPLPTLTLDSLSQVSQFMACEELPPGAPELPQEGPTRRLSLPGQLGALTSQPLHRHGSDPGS
# hNav1.4 - F1586C = hNav1.4 - F1586C (Homo sapiens, UniProt P35499, F1586C); conditions: ref Desaphy et al., 2012, cited from earlier work
# hNav1.4 - F1586C, sequence (P35499 whole entry F1586C): as the sequence (P35499 whole entry) above, with F1586C counted along it
# hNav1.4 channels = hNav1.4 channels (Homo sapiens, UniProt P35499); experiment: cell-based
# hNav1.4 channels, sequence (P35499 whole entry): as the sequence (P35499 whole entry) above
# [3] = current at end of first voltage step
structure (smiles),measurement,setting,value
"Cc1cccc(C)c1NC(=O)C(C)N (stereo not drawn) [Tocainide, tocainide]",oral bioavailability,[1],~100%
same,plasma protein bound,[1],~50%
same,HeLa cell viability,HeLa,reduction
same,MRC-5 cell viability,MRC-5,reduction
same,reduction of cell viability,[2],about 20%
same,Tonic block (0.1 Hz) nH,"hNav1.4 – WT; ref Ghelardini et al., 2010",1.0 ± 0.1
same,Phasic block (10 Hz) nH,"hNav1.4 – WT; ref Ghelardini et al., 2010",1.1 ± 0.2
same,0.1-to-10 Hz ratio,"hNav1.4 – WT; ref Ghelardini et al., 2010",3.8
"Cc1cccc(C)c1OCC(C)N (stereo not drawn) [Mexiletine, mexiletine]",In vivo Min,rat model of myotonia; minimal TRR value of the dose-response fit,18.0 ± 7.3%
same,maximal TRR reduction,"rat model of myotonia; oral, from dose-response fit",~80%
same,concentration at which inhibition of hERG currents was complete,hERG potassium channel; [3],1000 µM
same,concentrations at which inhibition of hERG currents was observed,hERG potassium channel; [3],greater than 1 μM
same,IC50,"hERG potassium channel; hERG IC50, tail currents at −50 mV after test depolarization at −10 mV",43 µM
same,ratio between hERG and hNav1.4 (myotonia-like condition) IC50,hERG potassium channel; hERG IC50 versus hNav1.4 IC50 at 50 Hz,2.5 fold
same,hERG nH,"hERG potassium channel; tail currents, Hill slope factor",0.79 ± 0.07
same,Tonic block (0.1 Hz) nH,hNav1.4 - F1586C; 0.1 Hz,1.1 ± 0.1
same,Phasic block (10 Hz) nH,hNav1.4 - F1586C; 10 Hz,1.0 ± 0.2
same,0.1-to-10 Hz ratio,hNav1.4 - F1586C; ratio of IC50 values,1.2
same,In vitro nH,hNav1.4 channels,1.2 ± 0.2
same,IC50,hNav1.4 channels; In vitro IC50,17 µM and 16.9 µM
same,Tonic block (0.1 Hz) nH,"hNav1.4 – WT; ref Desaphy et al., 2012",0.9 ± 0.1
same,Phasic block (10 Hz) nH,"hNav1.4 – WT; ref Desaphy et al., 2012",0.8 ± 0.1
same,0.1-to-10 Hz ratio,"hNav1.4 – WT; ref Desaphy et al., 2012",10.3
same,IC50,"hNav1.4 – WT; read-out: Phasic block (10 Hz) IC50, 10 Hz, ref Desaphy et al., 2012",24 ± 2 µM
